Tests used:
Liver microsome [1] = assay: Drug level in rat liver microsomes assessed as compound formation treated with 2 uM [14C]brivanib alaninate after 60 mins by LC/MS method in presence of 1 mM NADPH; assay type: ADME; details: 1 h
[2] = Drug level in monkey liver microsomes assessed as compound formation treated with 2 uM [14C]brivanib alaninate after 60 mins by LC/MS method in presence of 1 mM NADPH; assay type: ADME, Macaca mulatta; details: rhesus monkey, 1 h
Liver microsome [3] = assay: Drug level in human liver microsomes assessed as compound formation treated with 2 uM [14C]brivanib alaninate after 60 mins by LC/MS method in presence of 1 mM NADPH; assay type: ADME; details: 1 h
Liver microsome [4] = assay: Drug metabolism in human liver microsomes assessed as 1-(4-(4-fluoro-2-methyl-1H-indol-5-yloxy)-5-methylpyrrolo[1,2-f][1,2,4]triazin-6-yloxy)propan-2-one formation at 2 uM after 60 mins by LC/MS method in presence of 1 mM NADPH; assay type: ADME
[5] = Drug metabolism in monkey liver microsomes assessed as 1-(4-(4-fluoro-2-methyl-1H-indol-5-yloxy)-5-methylpyrrolo[1,2-f][1,2,4]triazin-6-yloxy)propan-2-one formation at 2 uM after 60 mins by LC/MS method in absence of NADPH; assay type: ADME, Macaca mulatta; details: rhesus monkey
Liver microsome [6] = assay: Drug metabolism in human liver microsomes assessed as 1-(4-(4-fluoro-2-methyl-1H-indol-5-yloxy)-5-methylpyrrolo[1,2-f][1,2,4]triazin-6-yloxy)propan-2-one formation at 2 uM after 60 mins by LC/MS method in absence of NADPH; assay type: ADME
Liver microsome [7] = assay: Drug metabolism in rat liver microsomes assessed as 1-(4-(4-fluoro-2-methyl-1H-indol-5-yloxy)-5-methylpyrrolo[1,2-f][1,2,4]triazin-6-yloxy)propan-2-one formation at 2 uM after 60 mins by LC/MS method in absence of NADPH; assay type: ADME
Liver microsome [8] = assay: Drug metabolism in rat liver microsomes assessed as 1-(4-(4-fluoro-2-methyl-1H-indol-5-yloxy)-5-methylpyrrolo[1,2-f][1,2,4]triazin-6-yloxy)propan-2-one formation at 2 uM after 60 mins by LC/MS method in presence of 1 mM NADPH; assay type: ADME
[9] = Drug metabolism in monkey liver microsomes assessed as 1-(4-(4-fluoro-2-methyl-1H-indol-5-yloxy)-5-methylpyrrolo[1,2-f][1,2,4]triazin-6-yloxy)propan-2-one formation at 2 uM after 60 mins by LC/MS method in presence of 1 mM NADPH; assay type: ADME, Macaca mulatta; details: rhesus monkey
HUVEC [10] = assay: Inhibition of VEGF/FGF-stimulated HUVEC cell proliferation assessed as 5-bromo-2-deoxyuridine incorporation; assay type: functional, cell-based; details: Homo sapiens
Liver microsome [11] = assay: Drug metabolism in human liver microsomes assessed as (R)-1-(4-(4-fluoro-2-methyl-1H-indol-5-yloxy)-5-methylpyrrolo[1,2-f][1,2,4]triazin-6-yloxy)propan-2-ol formation at 10 uM after 60 mins by LC/MS analysis in absence of NADPH; assay type: ADME
Liver cytosol [12] = assay: Drug metabolism in rat liver cytosol assessed as sulfate metabolite formation by Michaelis-Menten equation […]; assay type: ADME
HUVEC [13] = assay: Inhibition of VEGF-stimulated HUVEC cell proliferation assessed as 5-bromo-2-deoxyuridine incorporation; assay type: functional, cell-based; details: Homo sapiens
HUVEC [14] = assay: Inhibition of FGF-stimulated HUVEC cell proliferation assessed as 5-bromo-2-deoxyuridine incorporation; assay type: functional, cell-based; details: Homo sapiens
Liver cytosol [15] = assay: Drug metabolism in human liver cytosol assessed as sulfate metabolite formation by Michaelis-Menten equation […]; assay type: ADME
Liver microsome [16] = assay: Drug metabolism in rat liver microsomes assessed as (R)-1-(4-(4-fluoro-2-methyl-1H-indol-5-yloxy)-5-methylpyrrolo[1,2-f][1,2,4]triazin-6-yloxy)propan-2-ol formation at 10 uM after 60 mins by LC/MS analysis in absence of NADPH; assay type: ADME
[17] = Drug metabolism in monkey liver cytosol assessed as sulfate metabolite formation by Michaelis-Menten equation […]; assay type: ADME, Macaca mulatta; details: rhesus monkey
[18] = Drug metabolism in monkey liver microsomes assessed as (R)-1-(4-(4-fluoro-2-methyl-1H-indol-5-yloxy)-5-methylpyrrolo[1,2-f][1,2,4]triazin-6-yloxy)propan-2-ol formation at 10 uM after 60 mins by LC/MS analysis in absence of NADPH; assay type: ADME, Macaca mulatta; details: rhesus monkey
[19] = Tmax in healthy human plasma at 400 mg, po administered as single dose via gavage by LC/MS analysis; assay type: ADME, organism-based
[20] = Tmax in cynomolgus monkey plasma at 10 mg/kg, po administered as single dose via gavage by LC/MS analysis; assay type: ADME, organism-based, Macaca fascicularis; design: dose 10 mg/kg, route oral
[21] = Cmax in cynomolgus monkey plasma at 10 mg/kg, po administered as single dose via gavage by LC/MS analysis; assay type: ADME, organism-based, Macaca fascicularis; design: dose 10 mg/kg, route oral
[22] = AUC (0 to t) in Sprague-Dawley rat plasma at 60 mg/kg, po administered as single dose via gavage by LC/MS analysis; assay type: ADME, organism-based; design: dose 60 mg/kg, route oral
[23] = AUC (0 to t) in cynomolgus monkey plasma at 10 mg/kg, po administered as single dose via gavage by LC/MS analysis; assay type: ADME, organism-based, Macaca fascicularis; design: dose 10 mg/kg, route oral
[24] = AUC (0 to t) in healthy human plasma at 400 mg, po administered as single dose via gavage by LC/MS analysis; assay type: ADME, organism-based
[25] = Cmax in Sprague-Dawley rat plasma at 60 mg/kg, po administered as single dose via gavage by LC/MS analysis; assay type: ADME, organism-based; design: dose 60 mg/kg, route oral
[26] = Tmax in Sprague-Dawley rat plasma at 60 mg/kg, po administered as single dose via gavage by LC/MS analysis; assay type: ADME, organism-based; design: dose 60 mg/kg, route oral
[27] = Cmax in healthy human plasma at 400 mg, po administered as single dose via gavage by LC/MS analysis; assay type: ADME, organism-based; design: dose 400 mg, route oral

Row | Drug metabolism (Liver microsome [1]) | Drug metabolism [2] | Drug metabolism (Liver microsome [3]) | Km (Liver cytosol [12]) [µM] | Km (Liver cytosol [15]) [µM] | Km [17] [µM] | Compound | IC50 (HUVEC [10]) [nM] | IC50 (HUVEC [13]) [nM] | IC50 (HUVEC [14]) [nM] | further results
1 | – | – | – | 0.7 | 0.7 | 0.7 | Cc1cc2c(F)c(Oc3ncnn4cc(OC[C@H](C)O)c(C)c34)ccc2[nH]1 | 807 | 687 | 1010 | Drug metabolism (Liver microsome [11]): metabolite_not_detected; Drug metabolism (Liver microsome [16]): metabolite_not_detected; Drug metabolism [18]: metabolite_not_detected
2 | – | – | – | 0.7 | 0.7 | 0.7 | Cc1cc2c(F)c(Oc3ncnn4cc(OC[C@@H](C)O)c(C)c34)ccc2[nH]1 [BRIVANIB] | 841 | 618 | 695 | Tmax [19]: 2 h; Tmax [20]: 1 h; Cmax [21]: 1400 ng/mL; AUC(0-t) [22]: 7600 ng·h/mL; AUC(0-t) [23]: 6800 ng·h/mL; AUC(0-t) [24]: 21800 ng·h/mL; Cmax [25]: 3500 ng/mL; Tmax [26]: 1 h; Cmax [27]: 3500 ng/mL

More lines, now with the values behind:

Row | Compound | Drug metabolism (Liver microsome [1]) | Drug metabolism [2] | Drug metabolism (Liver microsome [3]) | Km (Liver cytosol [12]) [µM] | Km (Liver cytosol [15]) [µM] | Km [17] [µM] | IC50 (HUVEC [10]) [nM] | IC50 (HUVEC [13]) [nM] | IC50 (HUVEC [14]) [nM] | further results
3 | CC(=O)COc1cn2ncnc(Oc3ccc4[nH]c(C)cc4c3F)c2c1C | metabolite_detected | metabolite_detected | metabolite_detected | – | – | – | – | – | – | –
4 | Cc1cc2c(F)c(Oc3n[14cH]nn4cc(OC[C@@H](C)OC(=O)[C@H](C)N)c(C)c34)ccc2[nH]1 | – | – | – | – | – | – | – | – | – | Drug metabolism (Liver microsome [4]): metabolite_detected; Drug metabolism [5]: metabolite_not_detected; Drug metabolism (Liver microsome [6]): metabolite_not_detected; Drug metabolism (Liver microsome [7]): metabolite_not_detected; Drug metabolism (Liver microsome [8]): metabolite_detected; Drug metabolism [9]: metabolite_detected
5 | Cc1c(OC[C@@H](C)O)cn2ncnc(Oc3ccc4[nH]c(C(=O)O)cc4c3F)c12 | metabolite_detected | metabolite_detected | metabolite_detected | – | – | – | – | – | – | –
6 | Cc1c(OC[C@@H](C)O)cn2ncnc(Oc3ccc4[nH]c(CO)cc4c3F)c12 | metabolite_detected | metabolite_detected | metabolite_detected | – | – | – | – | – | – | –
